Tests used:
[1] = system: C57BL/6J mice fed HFHS diet (fatty liver); experiment: high-fat high-sucrose (HFHS) diet induced NAFLD mouse model, therapeutic NR supplementation, liver lipidomics; format: in vivo
Description: (A-C) C57BL/6J mice: (A) Schematic illustration of the three experimental groups used for validation of the NAFLD signatures; mice on CD (green), mice on HFHS diet from 7-25 weeks (grey), mice starting HFHS diet at 7 weeks and treated with nicotinamide riboside (NR) 9 weeks after the start of HFHS diet till the end of the study (for 9 weeks—therapeutic intervention, magenta). (B) Liver total TAG concentration (normalized to liver weight). […] (D-E) Human subjects: (D) PCA of 55 TAG species measured in human plasma from healthy, steatosis and NASH patients. (E) Plasma total TAG levels in human samples. (F-G) BXDs: (F) Correlation matrix showing the Pearson correlation of Atgl mRNA expression in four different metabolic tissues with the pro- and anti-NAFLD TAG signatures in plasma (left) and liver (right) for both diets. (G) Gene ontology biological processes (GO BP) associated with NAFLD TAG signatures. […] Red and blue cells represent the enriched pathways with the positively (scale bar: log 10 p-value) and negatively (scale bar: −log 10 p-value) correlated liver transcripts respectively. For B and E differences in mean TAG levels were compared using two-sample t tests. *p<0.05, **p<0.01, ***p<0.001.
(A) Levels of pro- and anti-NAFLD signatures in C57BL/6J mice fed on CD, high-fat high-sucrose-diet (HFHS) and HFHS diet supplemented with NR, 9 weeks after the initiation of HFHS diet (HFHS+NR). (B) Pearson correlation matrix of the pro- and anti-NAFLD signatures with NAFLD readouts including the NAS score (NAFLD activity score) and liver NAD+ levels. (C) Levels of plasma NAFLD signatures in human subjects with various degrees of NAFLD. (D) Pearson correlation matrix of the NAFLD signatures with NAFLD readouts in human subjects. (E) Pearson correlation of Atgl expression in subcutaneous WAT with pro- and anti-NAFLD plasma TAG signatures in BXD strains. For mice: n=6-9 per group. For human subjects: n=12, healthy; n=7, steatosis; n=14, early stage NASH; n=11, advanced stage NASH. Differences in mean TAG species were compared using two-sample t tests. *p<0.05, **p<0.01, ***p<0.001.
(A) Correlation diagram (corrgram) showing diet-independent association of lipid species with liver mass. […] Note that the CLs—CL(LOOPo), CL(LLPoP) and CL(OOOP)—are shown in the figure with an additional CL species because the two are isobaric and inseparable chromatographically. (F) Corrgram showing negative correlation of obesity and NAFLD traits with healthy CL species and positive correlation with unhealthy CL species.
It was then tested the relevance of these lipids as signatures of fatty liver in a different mouse model of NAFLD (induced by high-fat high-sucrose (HFHS) diet) and tested whether a NAFLD lowering therapeutic intervention, i.e. nicotinamide adenine dinucleotide (NAD^+) precursor, nicotinamide riboside (NR), impacts these lipid markers. As such, the liver lipids were compared of mice fed CD or HFHS diet for 18 weeks, or mice that were fed HFHS diet supplemented with NR 9 weeks after the start of HFHS diet when they had already developed NAFLD (a therapeutic intervention, HFHS+NR) (FIG. 11A). […] Of all the TAG species measured, only 53% were increased in HFHS cohort while 33% were decreased and 14% unchanged (data not shown). […] Importantly, the pro-NAFLD lipids correlated positively, whereas the anti-NAFLD lipids correlated negatively with clinical NAFLD readouts (FIG. 12B).
It was next tested whether this change in the profile of nine CL species is a general phenomenon in other dietary-induced models of hepatic steatosis and mitochondrial dysfunction and if the profile can be reverted by ameliorating hepato-steatosis via enhancing mitochondrial function. It has been previously shown that nicotinamide riboside (NR) treatment ameliorates high-fat high-sucrose (HFHS) diet induced fatty liver disease by boosting nicotinamide adenine dinucleotide (NAD+) levels and thereby enhancing mitochondrial function. […]

[2] = system: high-fat high-sucrose (HFHS) diet induced fatty liver disease; conditions: previously shown; by boosting NAD+ levels and enhancing mitochondrial function; cited from earlier work

Compound: NC(=O)c1ccc[n+]([C@@H]2O[C@H](CO)[C@@H](O)[C@H]2O)c1 [NR, nicotinamide riboside]
- liver anti-NAFLD lipids (TAGs 52:5, 52:4, 54:6) ([1]; C57BL/6J mice, HFHS+NR vs HFHS, FIG. 12A): increased the anti-NAFLD lipids only to a slight extent
- liver levels of healthy CLs (CL(LLLL), MLCL(LLL)) ([1]; C57BL/6J mice, HFHS+NR vs HFHS, FIG. 13D): increased
- liver levels of unhealthy CLs (MLCL(LOO), MLCL(LLO), CL(LOOPo), CL(LLPoP), CL(LOOO), CL(OOOP)) ([1]; C57BL/6J mice, HFHS+NR vs HFHS, FIG. 13E): decreased
- liver total TAG concentration ([1]; C57BL/6J mice, HFHS+NR vs HFHS, NR added 9 weeks after start of HFHS diet, 18 weeks total, FIG. 11B): decreased
- liver pro-NAFLD lipids (TAGs 52:2, 54:3, 56:3, 50:2) ([1]; C57BL/6J mice, HFHS+NR vs HFHS, lowered: TAGs 54:3, 56:3, 50:2, FIG. 12A): significantly lowered three of the four pro-NAFLD lipids
- liver NAD+ levels ([1]; steatotic livers of HFHS mice, after NR treatment, FIG. 12B): replenished
- HFHS diet induced fatty liver disease [2]: ameliorates
